Experimental data: US20260373135A1, “Methods of Treatment with Tradipitant” (Vanda Pharmaceuticals Inc., priority 2022, published 2026)
Where two headings read alike, the source gives them in different places.

Assay: Four-period, two-way crossover open label single-dose food-effect pharmacokinetic study of tradipitant capsules in healthy participants (plasma tradipitant and metabolites M2, M3, M4, M8)
Type: in vivo, human
Settings: for AUC(0-t), Least Squares Geometric Mean Ratio (%), Estimate / AUC(inf), Least Squares Geometric Mean Ratio (%), Estimate / Cmax, Least Squares Geometric Mean Ratio (%), Estimate: fed/fasted; for Tmax / AUC(0-t) / AUC(0-inf) / Cmax: plasma; for Tmax: median; for AUC(inf) Ratio of geometric means (170 mg / 85 mg) / Cmax Ratio of geometric means (170 mg / 85 mg): 85 mg vs 170 mg tradipitant
Protocol: To evaluate the pharmacokinetics and effect of food on the bioavailability of single-dose capsules containing 170 mg tradipitant and 85 mg tradipitant, an open label, four-period, two-way crossover study is performed. The study comprises two cohorts, each of which conducts a screening phase and an evaluation phase. Cohort 1 only conducts Period 1 and Period 2 (FIG. 5), while Cohort 2 only conducts Period 3 and Period 4 (FIG. 6). It is possible for a participant in Cohort 1 to be a Participant in Cohort 2.
The screening phase (Day-21 to Day-2, FIGS. 5-6) consists of a screening visit wherein an informed consent is obtained from potential participants, and their eligibility is initially assessed based on vital signs, body measurements, physical examination, ECG, clinical laboratory tests, drug and alcohol screen, and medical history. Clinical laboratory testing includes a pharmacogenetics sample for whole genome sequencing. Participants may include men or women aged 18-55 years, inclusive at the time of screening; having a Body Mass Index (BMI) of ≥18.0 and ≤39.0 kg/m^2 (BMI=weight (kg)/[height (m)]^2); and female participants of childbearing potential must be non-pregnant and non-lactating. Participants must be in good health as determined by a medical and psychiatric history, physical examination, electrocardiogram, and serum chemistry and hematology; willing to comply with study procedures and restrictions; willing to provide a pharmacogenetic sample; and have negative test result for selected substances of abuse at screening. Individuals may be excluded from participating based on history (within the 12 months prior to screening) of psychiatric disorders; current clinically significant cardiovascular, respiratory, neurologic, hepatic, hematopoietic, renal, gastrointestinal, or metabolic dysfunction unless currently controlled and stable; history of intolerance and/or hypersensitivity to other NK-1 receptor antagonists; clinically significant deviation from normal in clinical laboratory results, vital signs measurements, or physical examination findings at screening as determined by the clinical investigator; major surgery, trauma (including broken pelvis/legs), illness (e.g. sepsis), or immobility for 3 or more days within the past month; active cancer or cancer treatment within the past 6 months prior to screening; central venous catheter in place or within the past month; impaired liver function indicated by AST, ALT, or bilirubin >2 times the upper limit of normal, unless there is an isolated bilirubin >2 times the upper limit of normal due to Gilbert's syndrome; pregnancy or recent pregnancy (within 6 weeks prior to screening) or women who are breastfeeding; history of drug or alcohol abuse as defined in DSM-V, Diagnostic Criteria for Drug and Alcohol Abuse, within the 12 months prior to screening and/or regular consumption of alcoholic drinks (>2 drinks/day or >14 drinks/week); randomization in a previous tradipitant trial; and participants at risk of suicide, in the opinion of the Investigator. […]

[1] = fasted conditions, 85 mg vs 170 mg

increase in Tmax in the fed state (85 mg tradipitant oral, fed vs fasted): 2 fold | AUC(0-t), Least Squares Geometric Mean Ratio (%), Estimate (85 mg tradipitant oral): 234.21% | AUC(inf), Least Squares Geometric Mean Ratio (%), Estimate (85 mg tradipitant oral): 263.08% | Cmax, Least Squares Geometric Mean Ratio (%), Estimate (85 mg tradipitant oral): 437.59% | Cmax, Least Squares Geometric Mean Ratio (%), Estimate (85 mg tradipitant oral, listed as Tradipitant): 473.59% | Tmax (170 mg tradipitant oral, fasted): 1.50 (15) hr | AUC(0-t), Least Squares Geometric Mean Ratio (%), Estimate (170 mg tradipitant oral): 328.21% | AUC(inf), Least Squares Geometric Mean Ratio (%), Estimate (170 mg tradipitant oral): 381.70% | Cmax, Least Squares Geometric Mean Ratio (%), Estimate (170 mg tradipitant oral): 703.87% | Tmax (170 mg tradipitant oral, fed): 4.00 (15) hr | dose proportionality of AUC(inf) [1]: close to dose proportional | dose proportionality of Cmax [1]: less than dose proportionality | AUC(inf) Ratio of geometric means (170 mg / 85 mg) (fasted conditions): 1.92 | Cmax Ratio of geometric means (170 mg / 85 mg) (fasted conditions): 1.32 | AUC(inf) Ratio of geometric means (170 mg / 85 mg) (fed conditions): 2.30 | Cmax Ratio of geometric means (170 mg / 85 mg) (fed conditions): 1.93 | AUC(0-t) (human, po, 85 mg, 85 mg tradipitant oral, fasted, ln-transformed, read-out: AUC(0-t), Least Squares Geometric Mean, Fasted): 1650 ng·h/mL | AUC(0-inf) (human, po, 85 mg, 85 mg tradipitant oral, fasted, ln-transformed, read-out: AUC(inf), Least Squares Geometric Mean, Fasted): 1790 ng·h/mL | Cmax (human, po, 85 mg, 85 mg tradipitant oral, fasted, ln-transformed, read-out: Cmax, Least Squares Geometric Mean, Fasted): 84.7 ng/mL | AUC(0-inf) (human, po, 85 mg, 85 mg tradipitant oral, fasted, geometric mean [geometric % CV], read-out: AUC(inf)): 1840 ng·h/mL | Cmax (human, po, 85 mg, 85 mg tradipitant oral, fasted, geometric mean [geometric % CV], read-out: Cmax): 84.7 ng/mL | Tmax (human, po, 85 mg, 85 mg tradipitant oral, fasted, read-out: Tmax): 2 h | AUC(0-t) (human, po, 85 mg, 85 mg tradipitant oral, fed, ln-transformed, read-out: AUC(0-t), Least Squares Geometric Mean, Fed): 3860 ng·h/mL | AUC(0-inf) (human, po, 85 mg, 85 mg tradipitant oral, fed, ln-transformed, read-out: AUC(inf), Least Squares Geometric Mean, Fed): 4700 ng·h/mL | Cmax (human, po, 85 mg, 85 mg tradipitant oral, fed, ln-transformed, read-out: Cmax, Least Squares Geometric Mean, Fed): 401 ng/mL | AUC(0-inf) (human, po, 85 mg, 85 mg tradipitant oral, fed, geometric mean [geometric % CV], read-out: AUC(inf)): 4520 ng·h/mL | Cmax (human, po, 85 mg, 85 mg tradipitant oral, fed, geometric mean [geometric % CV], read-out: Cmax): 401 ng/mL | Tmax (human, po, 85 mg, 85 mg tradipitant oral, fed, read-out: Tmax): 4 h | AUC(0-t) (human, po, 170 mg, 170 mg tradipitant oral, fasted, ln-transformed, read-out: AUC(0-t), Least Squares Geometric Mean, Fasted): 2800 ng·h/mL | AUC(0-inf) (human, po, 170 mg, 170 mg tradipitant oral, fasted, ln-transformed, read-out: AUC(inf), Least Squares Geometric Mean, Fasted): 2730 ng·h/mL | Cmax (human, po, 170 mg, 170 mg tradipitant oral, fasted, ln-transformed, read-out: Cmax, Least Squares Geometric Mean, Fasted): 111 ng/mL | AUC(0-inf) (human, po, 170 mg, 170 mg tradipitant oral, fasted, geometric mean [geometric % CV], read-out: AUC(inf)): 3530 ng·h/mL | Cmax (human, po, 170 mg, 170 mg tradipitant oral, fasted, geometric mean [geometric % CV], read-out: Cmax): 112 ng/mL | Tmax (human, po, 170 mg, 170 mg tradipitant oral, fasted, read-out: Tmax): 1.5 h | AUC(0-t) (human, po, 170 mg, 170 mg tradipitant oral, fed, ln-transformed, read-out: AUC(0-t), Least Squares Geometric Mean, Fed): 9180 ng·h/mL | AUC(0-inf) (human, po, 170 mg, 170 mg tradipitant oral, fed, ln-transformed, read-out: AUC(inf), Least Squares Geometric Mean, Fed): 10400 ng·h/mL | Cmax (human, po, 170 mg, 170 mg tradipitant oral, fed, ln-transformed, read-out: Cmax, Least Squares Geometric Mean, Fed): 778 ng/mL | AUC(0-inf) (human, po, 170 mg, 170 mg tradipitant oral, fed, geometric mean [geometric % CV], read-out: AUC(inf)): 10400 ng·h/mL | Cmax (human, po, 170 mg, 170 mg tradipitant oral, fed, geometric mean [geometric % CV], read-out: Cmax): 774 ng/mL | Tmax (human, po, 170 mg, 170 mg tradipitant oral, fed, read-out: Tmax): 4 h
SMILES: O=C(c1ccccc1Cl)c1cccnc1-c1nnn(Cc2cc(C(F)(F)F)cc(C(F)(F)F)c2)c1-c1ccncc1 [tradipitant, {2-[1-(3,5-Bistrifluoromethylbenzyl)-5-pyridin-4-yl-1H-[1,2,3]triazol-4-yl]-pyridin-3-yl}-(2-chlorophenyl)-methanone]
effect of fed state on absorption (extent/rate, Tmax) (fed vs fasted, both 170 mg and 85 mg doses): an increase in the extent and a decrease in the rate of absorption
